Results from patent US20250262228A1, “TREATMENT OF SPASTICITY AND PAIN IN RENALLY-IMPAIRED PATIENTS” (Jazz Pharmaceuticals Research UK Limited., priority 2022, published 2025).

Columns and labels:
[1] = for Cmax, Geometric LS Mean Ratio (Severe RI/Normal), Estimate / AUClast, Geometric LS Mean Ratio (Severe RI/Normal), Estimate: plasma, mixed model; for Cmax, Geometric LS Mean Ratio (Severe RI/Normal), Estimate / AUClast, Geometric LS Mean Ratio (Severe RI/Normal), Estimate / increase in AUClast in severe renal impairment versus normal renal function / AUC0-tlast Fold Change from Normal / increase in AUC in the renally impaired group compared to the normal group / mean plasma concentrations over time in renally impaired participants versus normal: 4 sprays; for AUClast, Geometric LS Mean Ratio (Severe RI/Normal), Estimate: significant when ratio >=2.0 plus 90% CI outside 0.5-2.0; for elimination in patients with renal impairment: renally impaired vs normal, after oromucosal spray; for increase in AUClast in severe renal impairment versus normal renal function / increase in AUC in the renally impaired group compared to the normal group: severe renal impairment vs normal, oromucosal spray; for AUC0-tlast Fold Change from Normal / mean plasma concentrations over time in renally impaired participants versus normal: severe renal impairment; for mean plasma concentrations over time in renally impaired participants versus normal: FIGS. 1-4
From the text: Rationale: To date, no studies of administering the disclosed oromucosal spray in patients with varying degrees of renal impairment have been conducted. The present trial investigated the effects of the oromucosal spray in subjects with severe renal impairment. The principal aim of this trial was to assess the pharmacokinetic (PK) parameters following oromucosal administration in patients with severe renal impairment and individually matched healthy participants (i.e., otherwise identical patients with normal renal function).
Primary Objectives: Evaluated and compared the PK parameters of the oromucosal spray in participants with severe renal impairment or End-Stage Renal Disease (ESRD) to the PK profile in matched participants with normal renal function.
Primary Endpoints: The PK parameters, derived from the plasma concentration-time (Cmax) and area under the concentration-time curve calculated to the last concentration at time t (AUC0-t), or 48 hours (AUC0-48), for THC, CBD, and metabolites of THC and CBD (e.g., 11-OH-THC and 7-COOH-CBD).
The 4 sprays administered a total of 10.8 mg THC and 10 mg CBD. The duration of the trial was approximately 45 days, which included a screening period (up to 4 weeks), a treatment period (48 hours) and a safety follow-up period (2 weeks). Screening was performed within 28 to 2 days before dosing, and the assessments included measurement of serum creatinine to assess the eGFR as determined by the modification of diet in renal disease formula (MDRD) to verify initial participant eligibility for trial participation. Participants entered the screening period (Day −28 to −1). From Day −1, screened participants who continued to meet eligibility criteria were admitted to the clinical research facility and placed under observation continually from dosing until 48 hours postdose. […] On Day 1, participants received 4 sprays of the oromucosal spray.
Formulation Mode of Administration, Dose, and Regimen: The oromucosal spray was formulated as a mixture of THC and CBD extracts derived from Cannabis sativa L. The formulation contains THC and CBD as the most abundant cannabinoid constituents and also contains minor constituents including related cannabinoids and non-cannabinoid plant components, such as terpenes, sterols, and triglycerides. The spray contains 27 mg/mL of THC and 25 mg/mL of CBD dissolved in the excipients (e.g., ethanol and propylene glycol). Each spray delivers 100 μL containing 2.7 mg of THC and 2.5 mg of CBD.
Procedures: PK samplings were taken as close as to the nominal time point. Participants fasted overnight for at least 10 hours prior to the administration and for at least 4 hours thereafter. Standardized meals and beverages were provided at approximately 4 hours and 9 hours after dosing. With the exception of the water administered at the time of dosing, water was not permitted from 1 hour before until 1 hour after dosing. […] Cannabis or use of anticonvulsants, antidepressants, antipsychotic and anxiolytic medications were not allowed throughout the trial. Alcohol, nicotine products, and consuming food or beverages containing methylxanthines (caffeinated food or beverages) were prohibited for 24 hours prior to each visit and throughout the inpatient period.

[2] = renally impaired patients administered highly purified CBD; cited from earlier work

Structure (SMILES)	Cmax, Geometric LS Mean Ratio (Severe RI/Normal), Estimate [1]	AUClast, Geometric LS Mean Ratio (Severe RI/Normal), Estimate [1]	elimination in patients with renal impairment [1]	increase in AUClast in severe renal impairment versus normal renal function [1]	AUC0-tlast Fold Change from Normal [1]	increase in AUC in the renally impaired group compared to the normal group [1]	mean plasma concentrations over time in renally impaired participants versus normal [1]	clinically relevant elevations of CBD, 7-OH-CBD and 7-COOH-CBD (mean AUClast ratios greater than 2 between the renally impaired and the control) [2]
C=C(C)[C@@H]1CCC(C(=O)O)=C[C@H]1c1c(O)cc(CCCCC)cc1O [7-COOH-CBD]	1.4	1.92	relatively unchanged	< 2 fold	1.92 fold	–	–	–
C=C(C)[C@@H]1CCC(CO)=C[C@H]1c1c(O)cc(CCCCC)cc1O [7-OH-CBD]	1.89	4.59	clinically significant prolonged elimination	approximately 3 fold	4.59 fold	4.59 fold	–	–
CCCCCc1cc(O)c2c(c1)OC(C)(C)[C@@H]1CCC(C(=O)O)=C[C@@H]21 [11-COOH-THC]	1.15	1.26	relatively unchanged	–	1.26 fold	–	–	–
CCCCCc1cc(O)c2c(c1)OC(C)(C)[C@@H]1CCC(CO)=C[C@@H]21 [11-OH-THC]	2.13	3.18	clinically significant prolonged elimination	–	3.18 fold	3.18 fold	Much higher	–
C=C(C)[C@@H]1CCC(C)=C[C@H]1c1c(O)cc(CCCCC)cc1O [CBD, Cannabidiol, reference compound]	1.11	1.95	relatively unchanged	–	1.95 fold	–	elevated	–
CCCCCc1cc(O)c2c(c1)OC(C)(C)[C@@H]1CCC(C)=C[C@@H]21 [THC, Δ-9-tetrahydrocannabinol, reference compound]	0.8	1.34	relatively unchanged	–	1.34 fold	–	elevated	–
C=C(C)[C@@H]1CCC(C)=C[C@H]1c1c(O)cc(CCCCC)cc1O [highly purified form of CBD]	–	–	–	–	–	–	–	not observed
